Experiment in all cases: NCI anticancer screen, dose series, 48 h
Test [1] concerns 786-0.
Test [2] concerns A549.
Test [3] has as its system CAKI-1.
Test [4] has as its system CCRF-CEM.
For test [5], the system named is DU-145.
In test [6] the test system is HOP-92.
Test [7] deals with HT-29.
In test [8] the test system is K562.
Test [9] relates to MDA-MB-435.
The subject of test [10] is NCI-H226.
Test [11] relates to OVCAR-5.
For test [12], the system named is SF-295.
Test [13] concerns SK-MEL-2.
The test system of test [14] is SK-OV-3.
In test [15] the test system is SN12C.
The test system of test [16] is SNB-19.
The subject of test [17] is T47D.
The subject of test [18] is U-251.
The test system of test [19] is UACC-257.

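Values below derive from 48-hour exposures of cells grown in 96-well plates, with endpoints linearly interpolated between the two concentrations bracketing the appropriate inhibition level. GI50 marks 50% less growth.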 Active and inactive are the calls of the source. No stated cut-off is given here; in the data, active = GI50 up to about 1.1 µM and inactive = higher.

As to `O=C1N/C(=N/N=C/C(O)C(O)C(O)C(O)CO)N/C1=C\c1cccs1` (stereo not given), the GI50 in test [1] is > 100 µM (inactive); in test [2] it was 94.4 µM (inactive); in test [3] it was > 100 µM (inactive); in test [4] it was > 100 µM (inactive); in [5] it was > 100 µM (inactive); in [6] it was > 100 µM (inactive). In addition, the GI50 in test [7], in [8], in test [9], in [10], in test [11] and in [12] was > 100 µM (inactive) each time. Moreover, the GI50 is > 100 µM (inactive) in test [13]; > 100 µM (inactive) in [14]; > 100 µM (inactive) in test [15]; > 100 µM (inactive) in test [16]; 93.8 µM (inactive) in [17]; > 100 µM (inactive) in test [18]. Further, in [19], the GI50 is > 100 µM (inactive).

As for `CC1(C)CCC2=C(O1)/C(=N\Nc1ccccc1)c1ccccc1C2=O`, the GI50 was 15.8 µM (inactive) in test [1]; 27.2 µM (inactive) in test [2]; 24 µM (inactive) in test [3]; 56.1 µM (inactive) in test [4]; 29.8 µM (inactive) in test [5]; 24 µM (inactive) in test [6]. For the same compound, the GI50 in test [7] was 15.9 µM (inactive); in test [8] it was 39.9 µM (inactive); in [9], 30.8 µM (inactive); in [10], 39.9 µM (inactive); in [11] it was 31.3 µM (inactive); in test [12], 24.9 µM (inactive). Moreover, the GI50 in [13] is 16 µM (inactive); in test [14], 24.9 µM (inactive); in test [15], 20.3 µM (inactive); in [16] it was 40.4 µM (inactive); in test [17] it was 18.8 µM (inactive); in test [18], 24.8 µM (inactive). The GI50 in test [19] is 18.7 µM (inactive).

In the case of `O=[N+]([O-])/C(C(Cl)=C(Cl)Cl)=C(\NCc1ccccc1)Sc1ccccc1`, the GI50 in test [1] is 35.1 µM (inactive); in [2], 30.2 µM (inactive); in test [3], 37.3 µM (inactive); in test [4] it was 32 µM (inactive); in test [5], 36.6 µM (inactive); in test [7], 38.9 µM (inactive). Further, the GI50 in test [8] was 63 µM (inactive); in [9], 19.4 µM (inactive); in test [10], 27.8 µM (inactive); in test [11], 47 µM (inactive); in test [12], 20.6 µM (inactive); in test [13] it was 25.1 µM (inactive). Moreover, the GI50 in test [14] is 34 µM (inactive); in test [15], 35.2 µM (inactive); in [16], 41.2 µM (inactive); in test [17], 30.8 µM (inactive); in [18] it was 32.3 µM (inactive); in test [19] it was 33.9 µM (inactive).

For the compound `C[C@@H]1CC(=O)C[C@@H]2CC[C@H]3[C@@H]4CC[C@H](OC(=O)c5cccc6cc7ccccc7nc56)[C@H]4CC[C@@H]3[C@H]21`, the GI50 in test [1] was 11.4 µM (inactive); in [2], 25.1 µM (inactive); in test [3], 17.4 µM (inactive); in test [5], 14 µM (inactive); in [6] it was 23.3 µM (inactive); in test [7] it was 15.8 µM (inactive). For the same compound, the GI50 in test [8] is 8 µM (inactive); in test [9], 15.8 µM (inactive); in test [10], 26.5 µM (inactive); in [11] it was 18.8 µM (inactive); in [12], 27.8 µM (inactive); in test [13] it was 17.1 µM (inactive). The GI50 in test [14] is 25.2 µM (inactive); in [15] it was 16.6 µM (inactive); in test [16], 17.7 µM (inactive); in test [17] it was 13.7 µM (inactive); in test [18], 7.11 µM (inactive); in [19], 14.3 µM (inactive).

As to `O=C1/C(=C/c2ccc(Cl)cc2)N=C(c2ccccc2)N1c1nc2ccc(Sc3ccccc3)cc2[nH]1`, the GI50 in test [1] is 25.9 µM (inactive); in test [2], 36.1 µM (inactive); in [3] it was 30.1 µM (inactive); in [4] it was 22.4 µM (inactive); in test [5] it was 35.3 µM (inactive); in test [6], 45.9 µM (inactive). The GI50 in test [7] is 19.1 µM (inactive); in [8], 17.5 µM (inactive); in test [9], 10.2 µM (inactive); in test [11] it was 25.6 µM (inactive); in [12], 25.9 µM (inactive); in [13], 15.6 µM (inactive). Moreover, the GI50 in [14] is 41.4 µM (inactive); in [15], 29 µM (inactive); in test [16], 37.6 µM (inactive); in test [17] it was 23.1 µM (inactive); in [18], 31.3 µM (inactive); in [19] it was 22.3 µM (inactive).

In the case of `c1cc(-c2ccc(-c3ccc(C4=NC5CCCCC5N4)cc3)o2)ccc1C1=NC2CCCCC2N1` (stereo not given), the GI50 in test [1] was 1.49 µM (inactive); in test [2], 1.71 µM (inactive); in [3], 5.92 µM (inactive); in test [4], 1.79 µM (inactive); in [5], 1.6 µM (inactive); in test [6], 1.43 µM (inactive). Also, the GI50 in [7] is 1.39 µM (inactive); in [8], 1.42 µM (inactive); in test [9], 1.86 µM (inactive); in [10], 1.85 µM (inactive); in test [11], 2.09 µM (inactive); in test [12] it was 1.84 µM (inactive). In addition, the GI50 in test [13] is 1.82 µM (inactive); in test [14] it was 1.64 µM (inactive); in test [15], 1.47 µM (inactive); in test [16], 1.47 µM (inactive); in test [17] it was 1.98 µM (inactive); in test [18], 1.44 µM (inactive). In addition, in test [19], the GI50 was 1.75 µM (inactive).

For `C=C(C)C(=O)O[C@H]1CC2=CC(CC(C)=C[C@H]3OC(=O)C(=C)C13)OC2=O` (stereo not given in full), the GI50 is 9.08 µM (inactive) in test [1]; > 100 µM (inactive) in test [2]; 17.2 µM (inactive) in test [3]; 4.74 µM (inactive) in test [4]; 15.5 µM (inactive) in [5]; 16.4 µM (inactive) in [6]. The GI50 in [7] was 17 µM (inactive); in test [8], 7.74 µM (inactive); in test [9] it was 29.3 µM (inactive); in test [10], > 100 µM (inactive); in test [11], 33.7 µM (inactive); in test [12] it was > 100 µM (inactive). Also, the GI50 was 22.1 µM (inactive) in test [13]; 22.1 µM (inactive) in test [15]; > 100 µM (inactive) in [16]; 11.2 µM (inactive) in test [17]; > 100 µM (inactive) in [18]; 25.5 µM (inactive) in [19].

Consider `COc1ccc2c(c1O)[C@@]13CCCC=C1[C@@H](C2)[N+](C)(C)CC3`, for which the GI50 in test [1], in test [2], in test [3], in test [4], in [5] and in test [6] was > 100 µM (inactive) each time. Moreover, the GI50 in [7] is > 100 µM (inactive); in test [8] it was 57.8 µM (inactive); in test [9], > 100 µM (inactive); in test [10], > 100 µM (inactive); in test [11] it was > 100 µM (inactive); in test [12], > 100 µM (inactive). The GI50 in test [13], in test [14], in [15], in test [16], in [17] and in [18] was > 100 µM (inactive) each time. For the same compound, the GI50 in test [19] was 79.1 µM (inactive).

`CCOP(=O)(/C=C/n1ccc(=O)[nH]c1=O)OCC`: the GI50 in test [1], in test [2], in test [3], in test [4], in test [5] and in test [7] was > 100 µM (inactive) each time. The GI50 in test [8], in test [9], in [10], in [11], in [12] and in test [13] was > 100 µM (inactive) each time. For the same compound, the GI50 in test [14], in test [15], in [16], in test [17], in test [18] and in [19] was > 100 µM (inactive) throughout.

With `COc1cc(C2SC(=N)Nc3c2c(C)nn3C(=O)c2ccccc2O)ccc1O` (stereo not given), the GI50 in test [1] is > 2.33 µM (inactive); in test [2], 1.36 µM (inactive); in [3] it was > 2.42 µM (inactive); in test [4], 2.01 µM (inactive); in [5] it was 1.69 µM (inactive); in [6] it was > 10 µM (inactive). Further, the GI50 was > 6.38 µM (inactive) in [7]; 1.46 µM (inactive) in test [8]; 1.54 µM (inactive) in test [9]; > 2.25 µM (inactive) in test [10]; > 5.53 µM (inactive) in [11]; 1.28 µM (inactive) in test [12]. The GI50 in test [13] was > 2.86 µM (inactive); in test [14], > 2.17 µM (inactive); in test [15], > 2.64 µM (inactive); in [16], > 2.39 µM (inactive); in test [17] it was 0.971 µM (active); in test [18], 1.74 µM (inactive). The GI50 in [19] is 0.94 µM (active).

The values above are taken from ChEMBL document CHEMBL1201862, “PubChem BioAssay data set” (2004).
